Broadly, the EC50 is the midpoint of the concentration-response curve.

Where only a bound is given, the exact number is not on record here.

For this experiment, the target named is T1, GFRα1-RET (Homo sapiens, UniProt P56159).
T1 construct: expressed in transfected cells; host or cells: MG87 murine fibroblasts stably transfected with PathDetect Elk-1, GFRα1 and RET
T1 sequence (P56159 25-429 limits assumed): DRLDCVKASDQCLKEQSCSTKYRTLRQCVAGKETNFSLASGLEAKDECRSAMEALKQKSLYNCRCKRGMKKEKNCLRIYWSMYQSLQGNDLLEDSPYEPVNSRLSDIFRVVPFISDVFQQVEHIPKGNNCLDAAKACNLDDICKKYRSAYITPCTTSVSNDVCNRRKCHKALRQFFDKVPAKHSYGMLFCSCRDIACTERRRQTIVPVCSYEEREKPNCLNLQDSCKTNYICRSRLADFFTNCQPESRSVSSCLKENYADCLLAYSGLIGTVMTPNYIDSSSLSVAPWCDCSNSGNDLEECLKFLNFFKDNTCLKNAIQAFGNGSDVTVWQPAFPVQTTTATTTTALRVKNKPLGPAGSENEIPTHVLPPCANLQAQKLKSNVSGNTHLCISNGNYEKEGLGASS
Description: Elk1 luciferase reporter-gene assay in cells expressing GFRα1-RET. In kind it is cell-based. The conditions noted are these: agonist/activator activity of Elk1 signaling; MG87 murine fibroblast stably transfected with PathDetect Elk-1, GFRα1 and RET; 6 concentrations, duplicate, two independent runs. On the procedure: For EC50 determination, a dose-response test was performed using 6 concentrations of each tested compound. Dose-response curves were fitted using the sigmoidal dose-response (variable slope) analysis in GraphPad Prism program (Graph Pad Inc) and EC50 of agonist/activator activity was calculated. Dose-response experiments were all performed in duplicate, two times independently.
In general terms: A reporter such as luciferase makes a cellular process visible.
For `COc1ccc(S(=O)(=O)C2CCCC2)cc1N1[C@@H]2CC[C@H]1CN(C(=O)c1ccc(F)cc1Cl)C2` [Cpd 004, (2-chloro-4-fluoro-phenyl)-[(1S,5R)-8-(5-cyclopentylsulfonyl-2-methoxy-phenyl)-3,8-diazabicyclo[3.2.1]octan-3-yl]methanone], the EC50 was 1 to 10 µM. Next, `COc1ccc(S(=O)(=O)C2CCCCC2)cc1N1CCN(C(=O)c2ccc(F)cc2C(F)(F)F)CC1` [Cpd 003, [4-(5-cyclohexylsulfonyl-2-methoxy-phenyl)piperazin-1-yl]-[4-fluoro-2-(trifluoromethyl)phenyl]methanone]: 10 to 50 µM. With `CC(C)(C)CS(=O)(=O)c1cc(Cl)c(O)c(N2[C@@H]3CC[C@H]2CN(C(=O)c2ccc(F)cc2Cl)C3)c1` [Cpd 033, [(1S,5R)-8-[3-chloro-5-(2,2-dimethylpropylsulfonyl)-2-hydroxy-phenyl]-3,8-diazabicyclo[3.2.1]octan-3-yl]-(2-chloro-4-fluoro-phenyl)methanone] the figure was < 1 µM. In turn, `COc1ccc(S(=O)(=O)C(C)CCCc2ccccc2)cc1N1C2CCC1CN(C(=O)c1ccc(F)cc1Cl)C2` (racemic) [Cpd 024, (2-chloro-4-fluoro-phenyl)-[(1S,5R)-8-[2-methoxy-5-[(1SR)-1-methyl-4-phenyl-butyl]sulfonyl-phenyl]-3,8-diazabicyclo[3.2.1]octan-3-yl]methanone] came in with an EC50 of 1 to 10 µM. With `COc1ccc(S(=O)(=O)CCC2CCCC2)cc1N1[C@@H]2CC[C@H]1CN(C(=O)c1ccc(F)cc1Cl)C2` [Cpd 019, (2-chloro-4-fluoro-phenyl)-[(1S,5R)-8-[5-(2-cyclopentylethylsulfonyl)-2-methoxy-phenyl]-3,8-diazabicyclo[3.2.1]octan-3-yl]methanone] the figure was 1 to 10 µM. As to `CCC(CC)CS(=O)(=O)c1ccc(OC)c(N2[C@@H]3CC[C@H]2CN(C(=O)c2ccc(F)cc2Cl)C3)c1` [Cpd 021, (2-chloro-4-fluoro-phenyl)-[(1S,5R)-8-[5-(2-ethylbutylsulfonyl)-2-methoxy-phenyl]-3,8-diazabicyclo[3.2.1]octan-3-yl]methanone], the concentration giving a half-maximal response (EC50) was in the range of 1 to 10 µM. As to `CC(C)(C)CS(=O)(=O)c1cc(Cl)c(Cl)c(N2[C@@H]3CC[C@H]2CN(C(=O)c2ccc(F)cc2Cl)C3)c1` [Cpd 035, (2-chloro-4-fluoro-phenyl)-[(1S,5R)-8-[2,3-dichloro-5-(2,2-dimethylpropylsulfonyl)phenyl]-3,8-diazabicyclo[3.2.1]octan-3-yl]methanone], the concentration giving a half-maximal response (EC50) was < 1 µM. Consider `COc1ccc(S(=O)(=O)CC2CCCC2)cc1N1CCN(C(=O)c2ccc(F)cc2Cl)CC1` [Cpd 013, (2-chloro-4-fluoro-phenyl)-[4-[5-(cyclopentylmethylsulfonyl)-2-methoxy-phenyl]piperazin-1-yl]methanone], for which the EC50 fell in the range of 1 to 10 µM. Next, `COc1ccc(S(=O)(=O)CC(C)(C)C)cc1N1[C@@H]2CC[C@H]1CN(C(=O)c1ccc(F)cc1Cl)C2` [Cpd 015, (2-chloro-4-fluoro-phenyl)-[(1S,5R)-8-[5-(2,2-dimethylpropylsulfonyl)-2-methoxy-phenyl]-3,8-diazabicyclo[3.2.1]octan-3-yl]methanone]: 1 to 10 µM; `COc1ccc(S(=O)(=O)C2CCN(CCc3ccc(F)cc3)CC2)cc1N1[C@@H]2CC[C@H]1CN(C(=O)c1ccc(F)cc1Cl)C2` [Cpd 029, (2-chloro-4-fluoro-phenyl)-[(1S,5R)-8-[5-[[1-[2-(4-fluorophenyl)ethyl]-4-piperidyl]sulfonyl]-2-methoxy-phenyl]-3,8-diazabicyclo[3.2.1]octan-3-yl]methanone]: 1 to 10 µM. Next, `COc1ccc(S(=O)(=O)CC2CC2)cc1N1CCN(C(=O)c2ccc(F)cc2Cl)CC1` [Cpd 009, (2-chloro-4-fluoro-phenyl)-[4-[5-(cyclopropylmethylsulfonyl)-2-methoxy-phenyl]piperazin-1-yl]methanone]: 1 to 10 µM; `CC(C)(C)CS(=O)(=O)c1cc(Cl)c(OCCO)c(N2[C@@H]3CC[C@H]2CN(C(=O)c2ccc(F)cc2Cl)C3)c1` [Cpd 034, [(1S,5R)-8-[3-chloro-5-(2,2-dimethylpropylsulfonyl)-2-(2-hydroxyethoxy)phenyl]-3,8-diazabicyclo[3.2.1]octan-3-yl]-(2-chloro-4-fluoro-phenyl)methanone]: 1 to 10 µM. Next, `COc1ccc(S(=O)(=O)C2COC2)cc1N1CCN(C(=O)c2ccc(F)cc2Cl)CC1` [Cpd 011, (2-chloro-4-fluoro-phenyl)-[4-[2-methoxy-5-(oxetan-3-ylsulfonyl)phenyl]piperazin-1-yl]methanone]: 10 to 50 µM; `CCC(C)S(=O)(=O)c1ccc(OC)c(N2C3CCC2CN(C(=O)c2ccc(F)cc2Cl)C3)c1` (racemic) [Cpd 022, (2-chloro-4-fluoro-phenyl)-[(1S,5R)-8-[2-methoxy-5-[(1SR)-1-methylpropyl]sulfonyl-phenyl]-3,8-diazabicyclo[3.2.1]octan-3-yl]methanone]: 1 to 10 µM; `COc1ccc(S(=O)(=O)C2CCCC2)cc1N1CCN(C(=O)c2ccc(F)cc2C(F)(F)F)CC1` [Cpd 002, [4-(5-cyclopentylsulfonyl-2-methoxy-phenyl)piperazin-1-yl]-[4-fluoro-2-(trifluoromethyl)phenyl]methanone]: 10 to 50 µM. Regarding `CCCCS(=O)(=O)c1ccc(OC)c(N2[C@@H]3CC[C@H]2CN(C(=O)c2ccc(F)cc2Cl)C3)c1` [Cpd 020, [(1S,5R)-8-(5-butylsulfonyl-2-methoxy-phenyl)-3,8-diazabicyclo[3.2.1]octan-3-yl]-(2-chloro-4-fluoro-phenyl)methanone], the EC50 is 1 to 10 µM. On to `COc1ccc(S(=O)(=O)C2CCN(c3ccccc3)CC2)cc1N1[C@@H]2CC[C@H]1CN(C(=O)c1ccc(F)cc1Cl)C2` [Cpd 027, (2-chloro-4-fluoro-phenyl)-[(1S,5R)-8-[2-methoxy-5-[(1-phenyl-4-piperidyl)sulfonyl]phenyl]-3,8-diazabicyclo[3.2.1]octan-3-yl]methanone], for which the EC50 was < 1 µM. As to `CCC(CC)S(=O)(=O)c1ccc(OC)c(N2[C@@H]3CC[C@H]2CN(C(=O)c2ccc(F)cc2Cl)C3)c1` [Cpd 005, (2-chloro-4-fluoro-phenyl)-[(1S,5R)-8-[5-(1-ethylpropylsulfonyl)-2-methoxy-phenyl]-3,8-diazabicyclo[3.2.1]octan-3-yl]methanone], the EC50 was 1 to 10 µM. With `Cc1cc(S(=O)(=O)CC(C)(C)C)cc(N2[C@@H]3CC[C@H]2CN(C(=O)c2ccc(F)cc2Cl)C3)c1O` [Cpd 032, (2-chloro-4-fluoro-phenyl)-[(1S,5R)-8-[5-(2,2-dimethylpropylsulfonyl)-2-hydroxy-3-methyl-phenyl]-3,8-diazabicyclo[3.2.1]octan-3-yl]methanone] the figure was 1 to 10 µM; with `CCC(CCCc1ccccc1)S(=O)(=O)c1ccc(OC)c(N2C3CCC2CN(C(=O)c2ccc(F)cc2Cl)C3)c1` (racemic) [Cpd 026, (2-chloro-4-fluoro-phenyl)-[(1S,5R)-8-[5-[(1SR)-1-ethyl-4-phenyl-butyl]sulfonyl-2-methoxy-phenyl]-3,8-diazabicyclo[3.2.1]octan-3-yl]methanone], 1 to 10 µM; with `COc1ccc(S(=O)(=O)C2CCCC2)cc1N1CCN(C(=O)c2ccc(F)cc2Cl)CC1C` (racemic) [Cpd 006, (2-chloro-4-fluoro-phenyl)-[rac-(3S)-4-(5-cyclopentylsulfonyl-2-methoxy-phenyl)-3-methyl-piperazin-1-yl]methanone], 1 to 10 µM. Next, `CCCC(C)S(=O)(=O)c1ccc(OC)c(N2CCN(C(=O)c3ccc(F)cc3Cl)CC2C)c1` (racemic) [Cpd 016]: 1 to 10 µM; `O=C(c1ccc(F)cc1Cl)N1C[C@H]2CC[C@@H](C1)N2c1cc(S(=O)(=O)C2CCN(CCc3ccccc3)CC2)ccc1O` [Cpd 031, (2-chloro-4-fluoro-phenyl)-[(1S,5R)-8-[2-hydroxy-5-[[1-(2-phenylethyl)-4-piperidyl]sulfonyl]phenyl]-3,8-diazabicyclo[3.2.1]octan-3-yl]methanone]: 1 to 10 µM.

`O=C(c1ccc(F)cc1Cl)N1C[C@H]2CC[C@@H](C1)N2c1cc(S(=O)(=O)C2CCN(c3ccccc3)CC2)ccc1O` [Cpd 030, (2-chloro-4-fluoro-phenyl)-[(1S,5R)-8-[2-hydroxy-5-[(1-phenyl-4-piperidyl)sulfonyl]phenyl]-3,8-diazabicyclo[3.2.1]octan-3-yl]methanone]: the 50% effective concentration (EC50) is < 1 µM. `CCC(CCc1ccccc1)S(=O)(=O)c1ccc(OC)c(N2C3CCC2CN(C(=O)c2ccc(F)cc2Cl)C3)c1` (racemic) [Cpd 025, (2-chloro-4-fluoro-phenyl)-[(1S,5R)-8-[5-[(1SR)-1-ethyl-3-phenyl-propyl]sulfonyl-2-methoxy-phenyl]-3,8-diazabicyclo[3.2.1]octan-3-yl]methanone] displayed an EC50 of 1 to 10 µM. Next, `Cc1c(Cl)cc(S(=O)(=O)CC(C)(C)C)cc1N1[C@@H]2CC[C@H]1CN(C(=O)c1ccc(F)cc1Cl)C2` [Cpd 036, [(1S,5R)-8-[3-chloro-5-(2,2-dimethylpropylsulfonyl)-2-methyl-phenyl]-3,8-diazabicyclo[3.2.1]octan-3-yl]-(2-chloro-4-fluoro-phenyl)methanone]: < 1 µM.

(Values after patent US20260042770A1, “NOVEL SULFONES AND THEIR USE AS NEUROPROTECTIVE AND/OR NEURORESTORATIVE AGENTS” (GENECODE, priority 2022, published 2026).)
